Source: patent US20070117220A1, “METHOD AND APPARATUS FOR MEASURING FLUORESCENCE POLARIZATION IN LAB-ON-A-CHIP” (priority 2005, published 2007)

Legend:
streptavidin [1] = biological target: T1, streptavidin (Streptomyces avidinii, UniProt P22629); experiment: Fluorescence polarization of biotin/streptavidin complex in lab-on-a-chip microchannel, apparatus of FIG. 2 with optical chopper (Embodiment 3); format: binding
Experimental: Fluorescence polarization for the complex of biotin and streptavidin was measured using the apparatus of FIG. 2 including the optical chopper of the invention. In this Embodiment, a lab-on-a-chip made of glass and composed of a microchannel having a depth of 12 μm and a width of 79 μm was used to measure fluorescence polarization for a complex of biomolecule-fluorescently labeled biomaterial.
For the measurement, the samples were respectively filled in the reservoir of the lab-on-a-chip as following three cases: (A) wherein 4 μM of tetramethylrhodamine TMR was filled in the reservoir; (B) wherein 4 μM of TMR-biotin was put into the reservoir; and (C) wherein 4 μM of TMR-biotin and 1 μM of streptavidin were filled in the reservoirs.
Fluorescence polarizations FP for the above samples were measured in the microchannel of the lab-on-a-chip using the apparatus of FIG. 2 including the optical chopper.
As a result, in case of (A), fluorescence polarization was measured 0.047; in case of (B), it was 0.062; and in case of (C), it was 0.240, which were increased the complex of TMR-biotin and streptavidin was formed as shown in FIG. 7A.

streptavidin [2] = biological target: T1, streptavidin; experiment: Fluorescence polarization of biotin/streptavidin complex in lab-on-a-chip microchannel, apparatus of FIG. 2 without optical chopper (Embodiment 2); format: binding
Experimental: Fluorescence polarization FP for the complex of biotin and streptavidin in a lab-on-a-chip was measured using the apparatus of FIG. 2, wherein the optical chopper was not inserted. In this Embodiment, a lab-on-a-chip made of glass and composed of a microchannel having a depth of 12 μm and a width of 79 um was used instead of the 100 μL cuvette. After filling 100 μM of tetramethylrhodamine TMR solution in the microchannel of the lab-on-a-chip using a vacuum pump, a G-factor value was obtained in the same manner described above in Embodiment 1. […] Subsequently, the above samples filled in the reservoirs 1 and 2 were injected into the microchannel using the vacuum pump 6 of the lab-on-a-chip to measure fluorescence polarizations FP for the samples at a detection point 5 of the lab-on-a-chip.
As a result, in case of (A), fluorescence polarization was measured 0.085; in case of (B), it was 0.097; in case of (C), it was 0.036; in case of (D), it was 0.040; and in case of (E), it was 0.064, which were deviated from the expectations of increases in fluorescence polarization FP as not increased as the complex of TMR-biotin and streptavidin was formed as shown in FIG. 6A.
Fluorescence polarizations were recalculated from the measured values by subtracting the offset values, the offset being measured in the microchannel when only the buffer solution was filled. […]

TMR-α-casein [3] = experiment: Protease assay by fluorescence polarization of TMR-α-casein substrate, commercial fluorescence spectrometer; format: biochemical; details: time course, varying enzyme concentrations (unit/mL); FIGS. 9A-9D
Experimental: Changes of fluorescence polarization FP were measured using the method and apparatus for measuring fluorescence polarization of the present invention, employing TMR-α-casein as a substrate, composed of TMR as a fluorescent probe and α-casein, a universal protein substrate reacted with various proteases.
First, TMR-α-casein, a fluorescently labeled substrate for proteases, was prepared by applying one of the well-known methods [Analytical Biochemistry (,1996) 243, 1-7] as follows.
10 mg/mL of α-casein (sigma) and 5 mg/mL of 5-carboxytetramethylrhodamine succinimidyl ester were mixed in 0.1 M sodium bicarbonate buffer solution (pH 9.0) for reaction at room temperature for two and a half hours. The resulting TMR-α-casein was purified by passing the reaction mixture over a HiTrap desalting column (Sephadex G-25 Amersham Bioscience), and used after quantitation of the amounts of protein and fluorescence.
Proteinase K, trypsin, papain and elastase were used as proteases to react at increasing concentrations. First, as a comparative example, the process that the TMR-α-casein substrate was degraded by the proteases was analyzed using a commercial fluorescence spectrometer (Perkin Elmer). […]

TMR-α-casein [4] = experiment: On-chip protease assay by fluorescence polarization of TMR-α-casein substrate, lab-on-a-chip with optical chopper; format: biochemical; details: 1 μM TMR-α-casein final in channel; reaction time 5.1 seconds; FIGS. 10A-10D
Experimental: Next, the protease assays were carried out using an apparatus for measuring fluorescence polarization including the optical chopper of FIG. 2 on a lab-on-a-chip of glass composed of a channel 1 C1, in which substrates or enzymes flowed, and a channel 2 C2, in which the reaction occurred, the channels having a depth of 12 μm and a width of 79 μm as depicted in FIG. 8.
For on-chip protease assays, the substrates and the enzymes should mix completely prior to the enzyme reactions. […] […] Therefore, the reaction time was confirmed to be 5.1 seconds after mixing of the substrate with the enzymes.
Subsequently, to carry out the protease assays in the lab-on-a-chip,2 μM of TMR-α-casein (the final concentration in the channel was 1 μM) was placed in a substrate reservoir and the respective proteases were placed in an enzyme reservoir at increasing concentrations in the same manner as the comparative example. Then, the two substances were allowed to flow into a channel 2 C2, a main channel, to cause a reaction. Fluorescence polarization FP was then measured at the detection point, positioned 32 mm away from the junction, from which the substrates and the enzymes flowed in.
Again, it was noted that fluorescence polarization values plateaued when the concentration of the enzymes reached at the point generating a specific rate or more.

T1 sequence (P22629 25-183, species assumed): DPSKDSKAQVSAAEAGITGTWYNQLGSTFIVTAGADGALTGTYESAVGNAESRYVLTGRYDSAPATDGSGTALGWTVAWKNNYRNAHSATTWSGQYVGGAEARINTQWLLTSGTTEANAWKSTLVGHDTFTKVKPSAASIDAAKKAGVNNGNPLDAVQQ

Compound | change of fluorescence polarization values of TMR-α-casein as the reaction proceeded (TMR-α-casein [3]) | change of fluorescence polarization values of TMR-α-casein with enzyme concentration (TMR-α-casein [4]) | other results
O=C(O)CCCC[C@@H]1SC[C@@H]2NC(=O)N[C@@H]21 [D-biotin] |  |  | change of fluorescence polarization by competitive inhibition of TMR-biotin/streptavidin binding (streptavidin [1]; increasing concentrations of D-biotin supplied to the complex (4 μM TMR-biotin, 1 μM streptavidin) in the microchannel, FIG. 7B): decreased with the increasing concentrations
CN(C)c1ccc2c(-c3ccccc3C(=O)[O-])c3ccc(N(C)C)cc3[o+]c2c1 [TMR, tetramethylrhodamine] |  |  | fluorescence polarization (streptavidin [1]; 4 μM probe only, microchannel, optical chopper): 0.047; fluorescence polarization recalculated by subtracting the offset values (streptavidin [2]; 1.25 μM probe only in reservoir 1, buffer offset subtracted): 0.020; fluorescence polarization (as measured, offset not subtracted) (streptavidin [2]; 1.25 μM probe only in reservoir 1, no chopper): 0.085
elastase | decreased | decreased with increasing concentrations | 
trypsin | decreased | decreased with increasing concentrations | 
